The values below are quoted from earlier work in patent US20080160086A1, “Delivery Systems For Calcium” (Scepter Holdings, Inc., priority 2004, published 2008).

The conditions of this series: in humans; U.S. Pat. No. 6,582,722.

In the case of “calcium picolinate [calcium picolinate chelate]”, the bioavailability entry is “high bioavailability”.
